This passage reports IC50 results from patent publication US20100105655A1, “NOVEL COMPOUNDS 515” (ASTRAZENECA AB, priority 2008, published 2010).

In the assay the target is T1, human IGF1R (Homo sapiens, UniProt P08069).
T1 construct: expressed in transfected cells; host or cells: R+ cells (R- mouse fibroblasts transfected with human IGF1R)
As to the kind of experiment: Inhibition of insulin-like growth factor-1 receptor phosphorylation (immunofluorescence end point cell assay, R+ cells). It counts as cell-based. The conditions noted are these: R+ cells stimulated with 30 nM IGF1. The procedure: This immunofluorescence end point cell assay measures the ability of a test compound to reduce the measured levels of IGF phosphorylation after IGF1 stimulation in R^+ cells. R^+ cells are derived by transfection of R^− mouse fibroblast cells with human IGF1R. R^+ cells are routinely cultured in DMEM growth medium (Gibco BRL, 41966) containing 2 mM L-Glutamine (Invitrogen Code no. 25030-024) and 10% (v/v) foetal bovine serum (FBS)) in a 5% CO2 air incubator at 37° C.
To undertake the assay, the R^+ cells are seeded at 5×10^3 cells/well in DMEM plus 1% foetal calf serum, 1% L-glutamine in 96-well black Packard View plates (PerkinElmer 6005182) and incubated at 37° C. (+5% CO2) in a humidified incubator. […]
Following the compound treatment, the R^+ cells are stimulated with a final concentration of 30 nM IGF1 (Gropep IM001) for 20 minutes at 37° C. […] Additionally, in-house antibodies raised against phospho IGF1R were also used at a suitable titre determined for each batch. […]
The Green Fluorescent phospho IGF1R-associated signal in each well was measured using an Acumen Explorer HTS Reader (TTP Labtech Ltd., Cambridge). Phospho IGF1R-associated fluorescence emission can be detected at 530 nm following excitation at 488 nm. […] These fluorescent objects can be quantified and provide a measure of the phospho IGF1R levels in cells. […]

T1 sequence (P08069 31-1367): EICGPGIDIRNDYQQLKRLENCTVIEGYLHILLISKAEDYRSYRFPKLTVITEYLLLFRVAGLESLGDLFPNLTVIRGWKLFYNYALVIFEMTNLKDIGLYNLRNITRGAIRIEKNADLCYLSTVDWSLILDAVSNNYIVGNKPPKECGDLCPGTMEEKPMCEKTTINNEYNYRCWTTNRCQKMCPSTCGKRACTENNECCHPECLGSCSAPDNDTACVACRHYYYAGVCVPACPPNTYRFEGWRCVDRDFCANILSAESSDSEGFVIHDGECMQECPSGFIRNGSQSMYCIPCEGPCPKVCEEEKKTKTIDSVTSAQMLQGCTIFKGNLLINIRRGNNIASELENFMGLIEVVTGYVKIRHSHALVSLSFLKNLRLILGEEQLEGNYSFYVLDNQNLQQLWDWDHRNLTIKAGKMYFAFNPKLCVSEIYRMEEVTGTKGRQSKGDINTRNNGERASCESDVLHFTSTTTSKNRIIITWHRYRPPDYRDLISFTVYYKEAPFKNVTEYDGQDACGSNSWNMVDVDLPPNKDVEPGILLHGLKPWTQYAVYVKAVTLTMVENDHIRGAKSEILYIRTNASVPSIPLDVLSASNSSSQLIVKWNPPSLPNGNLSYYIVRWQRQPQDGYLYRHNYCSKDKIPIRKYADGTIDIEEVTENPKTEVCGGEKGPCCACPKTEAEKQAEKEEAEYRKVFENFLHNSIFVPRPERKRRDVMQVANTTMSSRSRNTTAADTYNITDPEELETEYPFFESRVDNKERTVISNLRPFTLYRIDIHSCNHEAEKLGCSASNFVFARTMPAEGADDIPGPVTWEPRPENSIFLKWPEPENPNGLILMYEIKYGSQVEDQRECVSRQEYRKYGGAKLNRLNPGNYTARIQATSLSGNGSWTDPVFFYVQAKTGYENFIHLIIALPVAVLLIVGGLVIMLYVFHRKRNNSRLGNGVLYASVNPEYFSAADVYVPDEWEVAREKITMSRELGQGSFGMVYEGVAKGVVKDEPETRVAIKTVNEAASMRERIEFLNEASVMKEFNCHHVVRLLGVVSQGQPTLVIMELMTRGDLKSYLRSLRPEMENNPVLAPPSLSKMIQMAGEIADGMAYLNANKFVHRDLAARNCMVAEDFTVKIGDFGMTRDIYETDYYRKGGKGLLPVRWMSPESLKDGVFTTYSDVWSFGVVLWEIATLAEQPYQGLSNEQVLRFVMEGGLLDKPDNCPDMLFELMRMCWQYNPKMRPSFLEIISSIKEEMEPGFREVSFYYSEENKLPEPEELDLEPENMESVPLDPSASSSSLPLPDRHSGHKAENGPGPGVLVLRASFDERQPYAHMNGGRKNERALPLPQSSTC

For the compound `COc1cc(N2CC(C)NC(C)C2)ccc1Nc1ncc(Cl)c(-c2cnc3ccccn23)n1` (stereo not shown) [5-chloro-N-[4-(3,5-dimethylpiperazin-1-yl)-2-methoxy-phenyl]-4-imidazo[1,2-a]pyridin-3-yl-pyrimidin-2-amine], the IC50 (usually the concentration at which inhibition is half-maximal) worked out at 4 nM.
